For assay [1], the target named is human SAP binding to TNP-KLH coated polystyrene (Homo sapiens, UniProt P02743). Description: Inhibition of binding of human SAP to TNP-KLH coated polystyrene. The settings on record: for IC50 / concentration at 50% inhibition of human SAP binding to TNP-KLH coated polystyrene: 40 ng/ml human SAP, preincubated 2 hours at 20° C.; for IC50: read-out: concentration at 50% inhibition of human SAP binding to TNP-KLH coated polystyrene.
Experimental: The samples containing 40 ng/ml human SAP are preincubated with dilutions of the compound to be tested as an inhibitor for two hours at 20° C. The perent decrease in SAP binding to TNP-KLH is calculated in comparison to the SAP binding in the absence of any inhibitor.

Assay [2] is described as follows: ELISA for SAP: binding of purified human SAP to plastic surface. As to the method: The wells of flat-bottom polystyrene microtiter plates (Immulon®, Dynatech, Zug, Switzerland) or polyvinyl chloride microtiter plates (Microtest III™, Becton Dickinson, Oxnard, CA, USA) are incubated with either 100 μl 0.3M NaHCO3 alone, 100 μl KLH 2 μg/ml in 0.3M NaHCO3, or 100 μl TNP-KLH (Example 1) 2 μg/ml in 0.3M NaHCO3 for one hour or more at room temperature. […] The plates are washed with 5 mM CaCl2, then incubated with 100 μl each of human SAP containing samples (standard solutions or serum dilutions in ELISA buffer) for 2 hours at 20° C. […] The plates are washed with 5 mM CaCl2, incubated for 2 hours at 20° C. with 100 μl of rabbit antiserum to human SAP (Calbiochem) diluted 1:10^4 with ELISA buffer, washed again with 5 mM CaCl2, and incubated overnight in a water-saturated atmosphere at 20° C. with 100 μl of horseradish peroxidase conjugated donkey anti-rabbit Ig antiserum (Amersham Int., Amersham, UK) diluted 1:5000 with ELISA buffer. The plates are washed, then developed with 100 μl per well of buffered o-phenylenediamine (100 mg in 48.6 ml 0.1M citric acid and 51.4 ml 0.2M Na2 HPO4, pH 5.0) containing 0.03% H2 O2 in the dark at 20° C. for 15 minutes. The reaction is stopped by addition of 25 μl 2.5M H2 SO4 and the optical density of the colour developed by the enzyme reaction determined at 492 nm using a Titertek® multiscan spectrophotometer (Flow Laboratories). […]
In general terms: An ELISA detects its analyte on a solid surface through an enzyme-linked reagent.

Assay [3] can be described thus: Retention of SAP on TNP-Sepharose column. The settings on record: absence of Ca^2+ ions, TBS. Format: binding, human.
Assay [4] is described as follows: ELISA for SAA: binding of human SAA to polystyrene.

Sequence of human SAP binding to TNP-KLH coated polystyrene (P02743 20-223): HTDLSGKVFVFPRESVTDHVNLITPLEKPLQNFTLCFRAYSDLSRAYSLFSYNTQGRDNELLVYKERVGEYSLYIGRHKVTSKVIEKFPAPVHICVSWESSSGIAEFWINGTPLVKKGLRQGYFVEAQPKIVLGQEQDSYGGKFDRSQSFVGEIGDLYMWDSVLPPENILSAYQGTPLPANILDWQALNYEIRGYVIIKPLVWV

As for `O=[N+]([O-])c1cc([N+](=O)[O-])c2ccc(S(=O)(=O)O)cc2c1O` [2,4-dinitro-1-naphthol-7-sulphonic acid], in assay [1], the “inhibition of SAP binding to TNP-KLH coated polystyrene, in words” value (from here on “inhibition of SAP binding”) is given as “Inhibiting properties” and the IC50 came to 43.3 ± 5.8 mM.
Consider `O=C(O)CN(CCN(CC(=O)O)CC(=O)O)CC(=O)O` [EDTA, ethylenediamine-N,N,N',N'-tetraacetic acid], for which, in assay [1], the “inhibition of SAP binding” value was “inhibitors of SAP binding at concentrations equal or in excess of the Ca^2+ concentration” and the IC50 amounted to 5.35 ± 1.3 mM.
Taken in the same sequence, the figures for `O=C(O)CN(CCOCCOCCN(CC(=O)O)CC(=O)O)CC(=O)O` [EGTA, 1,2-di(2-aminoethoxy)ethane-N,N,N',N'-tetraacetic acid] were “inhibitors of SAP binding at concentrations equal or in excess of the Ca^2+ concentration” and 17 ± 2.2 mM.
In the case of `Nc1ccc([As](=O)(O)O)cc1` [p-aminophenyl-arsonic acid], in assay [1], the “inhibition of SAP binding” value is given as “Inhibiting properties” and the IC50 was 27.3 ± 4.9 mM.
The matching figures for `O=[N+]([O-])c1ccc([As](=O)(O)O)cc1` [p-nitrophenylarsonic acid]: “Inhibiting properties” and 4.2 ± 1.3 mM.
Consider “SAP: serum amyloid P-component, a 9.5S α1 glycoprotein of 235'000 Dalton molecular weight”, for which the figures for the “SAP binding at reduced CaCl2 concentration” value in assay [2] (0.06 mM or lower concentrations of CaCl2) and in assay [2] (0.12 mM CaCl2) were “no SAP is bound” and “sharp decrease of SAP binding”, respectively. Further, the “retention of SAP on TNP-Sepharose” value in assay [3] is given as “not retained”.
As to “TNP-BSA: prepared from BSA and 2,4,6-trinitrobenzenesulfonic acid yielding a conjugate with 15 TNP residues per BSA molecule”, in assay [1], the “inhibition of SAP binding” value is “compete efficiently for SAP” and the “concentration at 50% inhibition of human SAP binding to TNP-KLH coated polystyrene” value turned out to be 0.33 ± 0.06 µg/mL.
As to pectic acid, in assay [1], the “inhibition of SAP binding” value is reported as “Inhibiting properties” and the “concentration at 50% inhibition of human SAP binding to TNP-KLH coated polystyrene” value amounted to 0.2 ± 0.07 µg/mL.

B1: SAA: α1 globulin consisting of a single polypeptide chain of molecular weight between 11'500 and 14'000 Dalton (protein, UniProt P0DJI8 19-122, looked up)
Serum amyloid A-1 protein: RSFFSFLGEAFDGARDMWRAYSDMREANYIGSDKYFHARGNYDAAKRGPGGAWAAEVITDARENIQRFFGHGAEDSLADQAANEWGRSGKDPNHFRPAGLPEKY
Regarding B1, the “binding of human SAA to KLH-coated polystyrene and polystyrene alone, in words” value in assay [4] (KLH-coated polystyrene and polystyrene alone) is “Substantial binding”. Also, in assay [4] (TNP-KLH coated polystyrene), the “binding of human SAA to polystyrene coated with TNP-KLH, in words” value is “very efficiently”. Also, in assay [4] (TNP-KLH coated polystyrene, Ca^2+ omitted), the “binding of human SAA when Ca^2+ is omitted, in words” value was “without loss in binding efficiency”.

The values above are taken from patent publication US4782014A, “Assay and purification of amyloid components, applications, and kits therefor” (Ciba-Geigy Corporation, priority 1985, dated 1988).
